Results from patent publication US20080114005A1, “Fibrate Compounds Having Ppar Agonist Activity” (Dr. Reddy's Laboratories Limited, priority 2004, published 2008).
Counter-ions that a name gives are not always drawn.

Key:
[1] = test system: hypercholesterolemic rat model; assay: plasma triglyceride and cholesterol lowering activity in hypercholesterolemic rat model; assay type: in vivo, Sprague Dawley rats; details: hypercholesterolemic rats, 3.0 mg/kg orally for 3 days; for Reduction (%) LDL: LDL cholesterol calculated by formula; for ↑HDL: increase of plasma HDL (under head Reduction (%)); for Reduction (%) TC: plasma total cholesterol; for Reduction (%) TG: plasma triglyceride
Experimental: The following procedure was used to determine plasma triglyceride and cholesterol lowering activity in hypercholesterolemic rat model.
Male Sprague Dawley rats (NIN stock) were bred in DRL animal house. Animals were maintained under 12 hour light and dark cycle at 25±1° C. Rats of 180-200 gram body weight range were used for the experiment. Animals are made hypercholesterolemic by feeding 2% cholesterol and 1% sodium cholate mixed with standard laboratory chow [National Institute of Nutrition (NIN), Hyderabad, India] for 6 days. Throughout the experimental period the animals were maintained on the same diet. The test compounds were administered orally at a dose mentioned in table for 3 days. Control group was treated with vehicle alone (0.25% CMC; 10 ml/kg). The blood samples were collected in fed state 1 hour after drug administration on 0 and 3 days of compound treatment. The blood was collected from the retro-orbital sinus through heparinised capillary in EDTA containing tubes. After centrifugation, plasma sample was separated for total cholesterol, HDL and triglyceride estimations. Measurement of plasma triglyceride, total cholesterol and HDL were done using commercial kits. LDL and VLDL cholesterol can be calculated from the data obtained for total cholesterol, HDL and triglyceride.
The percent reductions in blood sugar/triglycerides/total cholesterol were calculated according to the following formula:
OC=Zero day control group value
OT=Zero day treated group value
TC=Test day control group value
T=Test day treated group value.
The levels of LDL and VLDL cholesterol were calculated according to the formula:
VLDL cholesterol in mg/dl=[Total cholesterol-HDL cholesterol-LDL cholesterol] mg/dl.

Swiss albino mice = assay: plasma triglyceride lowering activity in Swiss albino mice; assay type: in vivo; details: 3.0 mg/kg orally for 6 days
Experimental: The properties of the derivatives of the invention were also evaluated in vivo. The following procedure was used to determine plasma triglyceride and total cholesterol lowering activity in Swiss albino mice.
Male Swiss albino mice (SAM) were obtained from National Institute Nutrition (NIN) and housed in Dr. Reddy's Laboratories Ltd (DRL) animal house. All these animals are maintained under 12 hour light and dark cycle at 25±1° C. Animals were given standard laboratory chow (NIN, Hyderabad, India) and water, ad libitum. SAM of 20-25 grams body weight range were used. See Oliver, P., Plancke, M. O., Marzin, D., Clavey, V., Sauzieres, J and Fruchart, J. C. Effects of fenofibrate, gemfibrozil and nicotinic acid on plasma lipoprotein levels in normal and hyperlipidemic mice, Atherosclerosis. 1988. 70: 107-114, incorporated herein by reference in its entirety. The test compounds can be administered orally to Swiss albino mice at the dose mentioned in table for 6 days. Control mice were treated with vehicle 0.25% Carboxymethylcellulose (CMC; dose 10 ml/kg). The blood samples from the retro-orbital sinus through heparinised capillary in EDTA containing tubes were collected in fed state 1 hour after drug administration on 0 and 6 days of treatment. After centrifugation plasma was separated for triglyceride measurement using commercial kits. See Wieland, O. Methods of Enzymatic analysis. Bergermeyer, H. O., Ed., 1963. 211-214; Trinder, P. Ann. Clin. Biochem. 1969. 6: 24-27, incorporated herein by reference in its entirety. Percent reduction was calculated as per the formula given in Petit, D., Bonnefis, M. T., Rey, C. and Infante, R. Effects of ciprofibrate on liver lipids and lipoprotein synthesis in normo- and hyperlipidemic rats. Atherosclerosis. 1988. 74 : 215-225.

human PPARα = molecular target: T1, human PPARα (Homo sapiens, UniProt Q07869); assay: in vitro PPARα transactivation, GAL4-LBD luciferase reporter in HEK-293 cells; assay type: cell-based; details: luciferase fold activation relative to untreated cells
T1 construct: expressed in transfected cells; host or cells: HEK-293
T1 sequence (Q07869 239-466 limits assumed): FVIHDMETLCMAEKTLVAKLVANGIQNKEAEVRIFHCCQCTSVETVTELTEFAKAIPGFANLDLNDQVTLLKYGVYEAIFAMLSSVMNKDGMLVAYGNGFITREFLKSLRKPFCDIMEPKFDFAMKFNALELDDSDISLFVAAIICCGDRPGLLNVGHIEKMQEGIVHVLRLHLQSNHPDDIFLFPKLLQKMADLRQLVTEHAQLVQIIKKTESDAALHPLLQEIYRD
Source text: A number of derivatives of the invention have shown PPAR agonist activity. The following procedure was used for in vitro determination of PPARα, γ and δ transactivation.
(§1) The ligand binding domain of human PPARγ1, PPARα or PPARδ was fused to the C-terminal end of DNA binding domain of yeast transcription factor GAL4 in eukaryotic expression vector. HEK-293 cells were transfected with either of these plasmids, reporter plasmid pGL2 (Gal4×5)˜SV40˜Luc and pAdVantage using superfect (Qiagen, Germany) for 3 hours. pAdVantage vector was used to enhance the luciferase expression. 48 hours after transfection, the cells were harvested and incubated overnight with or without test compounds at different concentrations. The cells were lysed and luciferase activity was measured using the LucLite kit (Packard USA). Luciferase activity was measured as fold activation relative to untreated cells.

human PPARγ1 = molecular target: T2, human PPARγ1 (Homo sapiens, UniProt P37231); assay: in vitro PPARγ transactivation, GAL4-LBD luciferase reporter in HEK-293 cells; assay type: cell-based; details: luciferase fold activation relative to untreated cells
T2 construct: expressed in transfected cells; host or cells: HEK-293
T2 sequence (P37231 238-503 limits assumed): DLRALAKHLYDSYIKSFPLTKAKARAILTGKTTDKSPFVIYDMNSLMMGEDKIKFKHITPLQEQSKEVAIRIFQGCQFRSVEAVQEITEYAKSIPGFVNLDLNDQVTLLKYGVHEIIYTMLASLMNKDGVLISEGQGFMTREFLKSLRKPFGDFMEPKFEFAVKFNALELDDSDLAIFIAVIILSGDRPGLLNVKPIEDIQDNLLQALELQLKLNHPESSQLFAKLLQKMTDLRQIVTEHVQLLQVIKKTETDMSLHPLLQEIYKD
Experimental: (§2) The following procedure was used for in vitro determination of PPARα, γ and δ transactivation.
as §1

human PPARδ = molecular target: T3, human PPARδ (Homo sapiens, UniProt Q03181); assay: in vitro PPARδ transactivation, GAL4-LBD luciferase reporter in HEK-293 cells; assay type: cell-based; details: luciferase fold activation relative to untreated cells
T3 construct: expressed in transfected cells; host or cells: HEK-293
T3 sequence (Q03181 211-439 limits assumed): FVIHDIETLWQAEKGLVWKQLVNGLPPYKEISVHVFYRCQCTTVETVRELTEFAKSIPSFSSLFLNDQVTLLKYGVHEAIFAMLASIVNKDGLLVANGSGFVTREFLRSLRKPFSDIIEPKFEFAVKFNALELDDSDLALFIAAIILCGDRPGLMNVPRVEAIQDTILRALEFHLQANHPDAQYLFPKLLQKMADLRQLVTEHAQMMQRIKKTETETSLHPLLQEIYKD
Experimental: as §2, §1

| SMILES | Reduction (%) LDL ([1]; 3 mg/kg) [%] | ↑HDL ([1]; 3 mg/kg) [%] | Reduction (%) TC ([1]; 3 mg/kg) [%] | Reduction (%) TG ([1]; 3 mg/kg) [%] | % reduction in TG (Swiss albino mice; 3 mg/kg) [%] | Reduction (%) LDL [1] [%] | ↑HDL [1] [%] | Reduction (%) TC [1] [%] | Reduction (%) TG [1] [%] | % reduction in TG (Swiss albino mice) [%] | PPARα activation (human PPARα; test compound at 1 μM) | PPARα activation (human PPARα; test compound at 10 μM) | PPARγ activation (human PPARγ1; test compound at 1 μM) | PPARγ activation (human PPARγ1; test compound at 10 μM) | melting point [°C] | PPARδ activation (human PPARδ; test compound at 1 μM) | PPARδ activation (human PPARδ; test compound at 10 μM) |
| --- | --- | --- | --- | --- | --- | --- | --- | --- | --- | --- | --- | --- | --- | --- | --- | --- | --- |
| CCCc1nn(C)c2c(=O)n(CCCc3ccc(OC(C)(CC)C(=O)O)cc3)c(C)nc12 (centres unmarked) [Example 96, Magnesium salt of 2-{4-[3-(1,5-dimethyl-7-oxo-3-propyl-1,7-dihydro-pyrazolo[4,3-d]pyrimidin-6-yl)-propyl]-phenoxy}-2-methyl-butyric acid] | 67 | 162 | 63 | 76 | 60 | – | – | – | – | – | – | – | – | – | – | – | – |
| CCCc1nn(C)c2c(=O)n(CCOc3cccc(OC(C)(CC)C(=O)O)c3)c(C)nc12 (centres unmarked) [Example 98, 2-{3-[2-(1,5-Dimethyl-7-oxo-3-propyl-1,7-dihydro-pyrazolo[4,3-d]pyrimidin-6-yl)-ethoxy]-phenoxy}-2-methyl-butyric acid] | – | – | – | – | – | 75 | 267 | 67 | 81 | 65 | 5.0 | 5.7 | 1.1(87.3) | 0.3(85.3) | 130 to 132 | 0.6 | 3.3 |
| CCCc1nn(C)c2c(=O)n(CCOc3cccc(O[C@@](C)(CC)C(=O)O)c3)c(C)nc12 [Example 104, S-(−)-2-{3-[2-(1,5-Dimethyl-7-oxo-3-propyl-1,7-dihydro-pyrazolo[4,3-d]pyrimidin-6-yl)-ethoxy]-phenoxy}-2-methyl-butyric acid] | – | – | – | – | – | 77 | 158 | 71 | 72 | 70 | – | – | – | – | 119 to 120 | – | – |
| CCCc1nn(C)c2c(=O)n(CCOc3cccc(OC(C)(C)C(=O)O)c3)c(C)nc12 [Example 89, 2-{3-[2-(1,5-Dimethyl-7-oxo-3-propyl-1,7-dihydro-pyrazolo[4,3-d]pyrimidin-6-yl)-ethoxy]-phenoxy}-2-methyl-propionic acid] | – | – | – | – | – | 68 | 102 | 65 | 68 | 60 | 2.1 | 7.4 | 0(54.5) | 0(62.8) | 140 to 142 | 0 | 0.4 |
| CCCc1nn(C)c2c(=O)n(CCOc3cc(O[C@](C)(CC)C(=O)O)ccc3Cl)c(C)nc12 [Example 102, R-(+)-2-{4-Chloro-3-[2-(1,5-dimethyl-7-oxo-3-propyl-1,7-dihydro-pyrazolo[4,3-d]pyrimidin-6-yl)-ethoxy]-phenoxy}-2-methyl-butyric acid] | – | – | – | – | – | 55 | 45 | 51 | 51 | 67 | 3.9 | 5.2 | – | – | 98 to 100 | 1.7 | 1.3 |
| CCCc1nn(C)c2c(=O)n(CCOc3cccc(O[C@](C)(CC)C(=O)O)c3)c(C)nc12 [Example 100, R-(+)-2-{3-[2-(1,5-Dimethyl-7-oxo-3-propyl-1,7-dihydro-pyrazolo[4,3-d]pyrimidin-6-yl)-ethoxy]-phenoxy}-2-methyl-butyric acid] | – | – | – | – | – | 76 | 145 | 70 | 60 | 76 | – | – | – | – | 118 to 120 | – | – |
| CCCc1nn(C)c2c(=O)n(CCCc3cccc(OC(C)(C)C(=O)O)c3)c(C)nc12.N=C(N)NCCC[C@H](N)C(=O)O [Example 82, Argenine salt of 2-{3-[3-(1,5-dimethyl-7-oxo-3-propyl-1,7-dihydro-pyrazolo[4,3-d]pyrimidin-6-yl)-propyl]-phenoxy}-2-methyl-propionic acid] | – | – | – | – | – | 72 | 48 | 68 | 69 | 81 | 7.1 | 8.4 | – | – | – | 0 | 0 |
| CCCc1nn(C)c2c(=O)n(CCCc3ccc(OC(C)(CC)C(=O)O)cc3)c(C)nc12 (centres unmarked) [Example 95, 2-{4-[3-(1,5-Dimethyl-7-oxo-3-propyl-1,7-dihydro-pyrazolo[4,3-d]pyrimidin-6-yl)-propyl]-phenoxy}-2-methyl-butyric acid] | 69 | 212 | 64 | 67 | 63 | – | – | – | – | – | 6.4 | 7.3 | 17.3(85.5) | 36.6(110.3) | – | 0.1 | 4.0 |
